Measurements: patent US9510589B2, “Use and agrochemical composition of carboxylic acid dibutylamides” (priority 2011, dated 2016)

Key:
[1] = system: enzymatically isolated cuticles of apple tree leaves; test: Penetration test, isopyrazam (Example 13); format: in vitro ADME, apple trees of the Golden Delicious variety; settings: without N,N-dibutylcarboxamide, 0.3 g/l isopyrazam in acetone/water, 20° C., 60% relative air humidity
Protocol: (§1) In this test, the penetration of active ingredients though enzymatically isolated cuticles of apple tree leaves was measured. Leaves which had been cut off in the fully developed state from apple trees of the Golden Delicious variety were used.
(§2) Thereafter, only the cuticles of the upper leaf sides which were free of stomata and hairs were used in the further procedure. They were repeatedly washed alternately with water and a buffer solution of pH 7. The clean cuticles obtained were finally applied to Teflon sheets and smoothed and dried with a gentle air stream.
(§3) In the next step, the cuticular membranes thus obtained were placed into stainless steel diffusion cells (=transport chambers) for membrane transport studies. For this purpose, the cuticles were positioned using tweezers centrally onto the edges of the diffusion cells which had been smeared with silicone grease and sealed with a ring which had likewise been greased. The arrangement was selected such that the morphological outer side of the cuticles was directed outward, i.e. toward the air, while the original inner side faced the interior of the diffusion cell. […]
(§4) To determine the penetration, 10 μl in each case of a spray liquor of the composition specified in the examples were applied to the outer side of a cuticle. […] The active ingredient penetration was measured by means of HPLC or radiolabeled active ingredient.

[2] = system: enzymatically isolated cuticles of apple tree leaves; test: Penetration test, spirotetramat in acetone/water (Example 7); format: in vitro ADME, apple trees of the Golden Delicious variety; settings: without N,N-dibutylcarboxamide, 0.3 g/l spirotetramat in acetone/water, 20° C., 60% relative air humidity
Protocol: as §1, §2, §3, §4

[3] = system: enzymatically isolated cuticles of apple tree leaves; test: Penetration test, prothioconazole in acetone/water (Example 15); format: in vitro ADME, apple trees of the Golden Delicious variety; settings: without N,N-dibutylcarboxamide, 0.3 g/l prothioconazole in acetone/water, 25° C., 60% relative air humidity
Protocol: as §1, §2, §3, §4

[4] = system: enzymatically isolated cuticles of apple tree leaves; test: Penetration test, prothioconazole with dimethyl amide plus dibutyl amides (Example 17); format: in vitro ADME, apple trees of the Golden Delicious variety; settings: no N,N-dibutylcarboxamide, 0.8 g/l prothioconazole in acetone/water with 1.5 g/l N,N-dimethyl-C8-C10-carboxamide and 0.4 g/l tristyrylphenol ethoxylate, n = 21, 20° C., 60% relative air humidity
Protocol: as §1, §2, §3, §4

[5] = system: enzymatically isolated cuticles of apple tree leaves; test: Penetration test, azoxystrobin (Example 10); format: in vitro ADME, apple trees of the Golden Delicious variety; settings: without N,N-dibutylcarboxamide, 0.3 g/l azoxystrobin in acetone/water, 20° C., 60% relative air humidity
Protocol: as §1, §2, §3, §4

[6] = system: enzymatically isolated cuticles of apple tree leaves; test: Penetration test, propiconazole (Example 12); format: in vitro ADME, apple trees of the Golden Delicious variety; settings: without N,N-dibutylcarboxamide, 0.3 g/l propiconazole in acetone/water, 20° C., 60% relative air humidity
Protocol: as §1, §2, §3, §4

[7] = system: enzymatically isolated cuticles of apple tree leaves; test: Penetration test, epoxiconazole (Example 11); format: in vitro ADME, apple trees of the Golden Delicious variety; settings: without N,N-dibutylcarboxamide, 0.3 g/l epoxiconazole in acetone/water, 20° C., 60% relative air humidity
Protocol: as §1, §2, §3, §4

[8] = system: enzymatically isolated cuticles of apple tree leaves; test: Penetration test, kresoxim-methyl (Example 9); settings: without N,N-dibutylcarboxamide, 0.3 g/l kresoxim-methyl in acetone/water, 20° C., 60% relative air humidity
Protocol: as §1, §2, §3, §4

[9] = system: isolated apple leaf cuticles; test: Penetration test, fluopyram EC (Example 21); format: in vitro ADME, apple trees of the Golden Delicious variety; settings: no carboxamide, 0.5 g/l fluopyram, 0.5 g/l emulsifier, 2% by weight solvent, 25° C., 60% relative air humidity
Protocol: The active ingredient fluopyram was made up as an EC formulation in the laboratory: fluopyram is dissolved in a preliminary mixture of solvent and emulsifier (dimethylacetamide+Tanemul PS16) and diluted with water to give the ready-to-use test solution. The test solution contains 0.5 g/l active ingredient, 0.5 g/l emulsifier and 2% by weight of solvent.

[10] = system: enzymatically isolated cuticles of apple tree leaves; test: Penetration test, bromoxynil, dimethyl vs dibutyl amides (Example 6); format: in vitro ADME, apple trees of the Golden Delicious variety; settings: no N,N-dialkylcarboxamide, 0.5 g/l castor oil ethoxylate emulsifier only, 1.5 g/l bromoxynil in acetone/water, 20° C., 60% relative air humidity
Protocol: as §1, §2, §3, §4

CC(C)C1C2CCC1c1c(NC(=O)c3cn(C)nc3C(F)F)cccc12 (centres unmarked) [isopyrazam]
Mean penetration of isopyrazam in % 3 h ([1]; 3 h): 1% | Mean penetration of isopyrazam in % 24 h ([1]; 24 h): 2%

CCOC(=O)OC1=C(c2cc(C)ccc2C)C(=O)N[C@]12CC[C@@H](OC)CC2 [spirotetramat]
Mean penetration of spirotetramat in % 3 h ([2]; 3 h): 0% | Mean penetration of spirotetramat in % 24 h ([2]; 24 h): 1%

OC(Cc1ccccc1Cl)(Cn1nc[nH]c1=S)C1(Cl)CC1 (centres unmarked) [prothioconazole]
Mean penetration of prothioconazole in % 3 h ([3]; 3 h): 1% | Mean penetration of prothioconazole in % 24 h ([3]; 24 h): 2% | Mean penetration of prothioconazole in % 3 h ([4]; 3 h): 1.3 (n = 21) % | Mean penetration of prothioconazole in % 24 h ([4]; 24 h): 3.7 (n = 21) %

CO/C=C(/C(=O)OC)c1ccccc1Oc1cc(Oc2ccccc2C#N)ncn1 [azoxystrobin]
Mean penetration of azoxystrobin in % 3 h ([5]; 3 h): <1% | Mean penetration of azoxystrobin in % 24 h ([5]; 24 h): 1%

CCCC1COC(Cn2cncn2)(c2ccc(Cl)cc2Cl)O1 (centres unmarked) [propiconazole]
Mean penetration of propiconazole in % 3 h ([6]; 3 h): 4% | Mean penetration of propiconazole in % 24 h ([6]; 24 h): 44%

Fc1ccc([C@]2(Cn3cncn3)O[C@H]2c2ccccc2Cl)cc1 (racemic) [epoxiconazole]
Mean penetration of epoxiconazole in % 3 h ([7]; 3 h): 1% | Mean penetration of epoxiconazole in % 24 h ([7]; 24 h): 2%

CO/N=C(/C(=O)OC)c1ccccc1COc1ccccc1C [kresoxim-methyl]
Mean penetration of kresoxim-methyl in % 3 h ([8]; 3 h): 1% | Mean penetration of kresoxim-methyl in % 24 h ([8]; 24 h): 3%

O=C(NCCc1ncc(C(F)(F)F)cc1Cl)c1ccccc1C(F)(F)F [fluopyram]
Mean penetration of fluopyram in % 6 h ([9]; 6 h): 20% | Mean penetration of fluopyram in % 24 h ([9]; 24 h): 53%

N#Cc1cc(Br)c(O)c(Br)c1 [bromoxynil]
Mean penetration of bromoxynil in % 5 h ([10]; 5 h): 4% | Mean penetration of bromoxynil in % 24 h ([10]; 24 h): 20%
